Drawing on patent publication US9346815B2, “5-chloro-2-difluoromethoxyphenyl pyrazolopyrimidine compounds, compositions and methods of use thereof” (Genentech, Inc., priority 2014, dated 2016), this text covers EC50 and Ki for 20 compounds.

Usually Ki stands for a dissociation constant, usually derived from enzyme kinetics or from competition with a known ligand.

Experiment [1] deals with JAK1-dependent STAT6 phosphorylation downstream of IL-13 stimulation in TF-1 human erythroleukemia cells. Kind of experiment: JAK1 pathway assay in TF-1 cells (IL-13-pSTAT6, MSD). Format: cell-based. Particulars: Homo sapiens, TF-1, TF-1 cells, read-out: IL13-pSTAT6 EC50_TF-1. In outline:
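TF-1 cells are starved of GM-CSF overnight and run in serum-free medium, while BEAS-2B cells stay in complete growth medium. Inhibition of STAT6 phosphorylation is measured by MSD.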

Experiment [2] has as its target isolated recombinant JAK2 kinase domain (Homo sapiens (Human), UniProt O60674). Kind of experiment: JAK2 enzyme assay (Caliper LabChip, peptide phosphorylation). Format: biochemical. As to conditions: 25 μM ATP.
Experiment [3] concerns the target isolated recombinant JAK1 kinase domain (Homo sapiens (Human), UniProt P23458). Description: JAK1 enzyme assay (Caliper LabChip, peptide phosphorylation). The experiment is classed as biochemical. Particulars: isolated recombinant JAK1 kinase domain, 25 μM ATP.

Chain of isolated recombinant JAK1 kinase domain (P23458 875-1153): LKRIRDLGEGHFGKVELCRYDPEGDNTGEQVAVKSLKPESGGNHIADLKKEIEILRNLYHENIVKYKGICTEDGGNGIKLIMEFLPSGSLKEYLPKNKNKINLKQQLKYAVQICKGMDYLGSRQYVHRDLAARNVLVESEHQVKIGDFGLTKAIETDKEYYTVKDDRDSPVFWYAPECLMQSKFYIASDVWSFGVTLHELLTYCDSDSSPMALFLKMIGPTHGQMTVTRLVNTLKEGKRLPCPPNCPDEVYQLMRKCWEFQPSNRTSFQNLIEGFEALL
Chain of isolated recombinant JAK2 kinase domain (O60674 849-1124): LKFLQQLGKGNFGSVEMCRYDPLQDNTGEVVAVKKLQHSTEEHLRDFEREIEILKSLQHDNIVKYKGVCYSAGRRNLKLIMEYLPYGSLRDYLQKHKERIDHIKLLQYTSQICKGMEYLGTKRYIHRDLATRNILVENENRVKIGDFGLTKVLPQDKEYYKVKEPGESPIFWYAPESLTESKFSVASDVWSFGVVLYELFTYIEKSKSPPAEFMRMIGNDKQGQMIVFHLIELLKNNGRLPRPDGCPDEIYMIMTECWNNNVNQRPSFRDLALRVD

As to `Nc1nn2cccnc2c1C(=O)Nc1cn(C2CCN(CCCC(=O)N3CCCCC3)CC2)nc1-c1cc(Cl)ccc1OC(F)F` [Example 143, 2-amino-N-[3-[5-chloro-2-(difluoromethoxy)phenyl]-1-[1-[4-oxo-4-(1-piperidyl)butyl]-4-piperidyl]pyrazol-4-yl]pyrazolo[1,5-a]pyrimidine-3-carboxamide], the EC50 in experiment [1] was found to be 20.4 nM. Moreover, the inhibition constant (Ki) in experiment [2] amounted to 0.18 nM; in experiment [3] it was 0.76 nM.
Consider `Nc1nn2cccnc2c1C(=O)Nc1cn(C2CCN(CCCNC(=O)c3ccccc3)CC2)nc1-c1cc(Cl)ccc1OC(F)F` [Example 145, 2-amino-N-[1-[1-(3-benzamidopropyl)-4-piperidyl]-3-[5-chloro-2-(difluoromethoxy)phenyl]pyrazol-4-yl]pyrazolo[1,5-a]pyrimidine-3-carboxamide], for which the EC50 in experiment [1] was 14.8 nM. Also, the Ki in experiment [2] came out at 0.16 nM; in experiment [3], 0.57 nM.
As for `Nc1nn2cccnc2c1C(=O)Nc1cn(C2CCN(CCCN3CCCC3=O)CC2)nc1-c1cc(Cl)ccc1OC(F)F` [Example 146, 2-amino-N-[3-[5-chloro-2-(difluoromethoxy)phenyl]-1-[1-[3-(2-oxopyrrolidin-1-yl)propyl]-4-piperidyl]pyrazol-4-yl]pyrazolo[1,5-a]pyrimidine-3-carboxamide], the EC50 in experiment [1] was 3.9 nM. Also, the Ki in experiment [2] came out at 0.13 nM; in experiment [3], 0.45 nM.
In the same order, the values of `CN(C)C(=O)CCCN1CCC(n2cc(NC(=O)c3c(N)nn4cccnc34)c(-c3cc(Cl)ccc3OC(F)F)n2)CC1` [Example 148, 2-amino-N-[3-[5-chloro-2-(difluoromethoxy)phenyl]-1-[1-[4-(dimethylamino)-4-oxo-butyl]-4-piperidyl]pyrazol-4-yl]pyrazolo[1,5-a]pyrimidine-3-carboxamide] are 9.4 nM, 0.1 nM and 0.64 nM.
In the same order, the values of `CC(=O)NCCCN1CCC(n2cc(NC(=O)c3c(N)nn4cccnc34)c(-c3cc(Cl)ccc3OC(F)F)n2)CC1` [Example 150, N-[1-[1-(3-acetamidopropyl)-4-piperidyl]-3-[5-chloro-2-(difluoromethoxy)phenyl]pyrazol-4-yl]-2-amino-pyrazolo[1,5-a]pyrimidine-3-carboxamide] are 20.1 nM, 0.17 nM and 0.73 nM.
Consider `CN(CCCN1CCC(n2cc(NC(=O)c3c(N)nn4cccnc34)c(-c3cc(Cl)ccc3OC(F)F)n2)CC1)C(=O)c1ccccc1` [Example 151, 2-amino-N-[1-[1-[3-[benzoyl(methyl)amino]propyl]-4-piperidyl]-3-[5-chloro-2-(difluoromethoxy)phenyl]pyrazol-4-yl]pyrazolo[1,5-a]pyrimidine-3-carboxamide], for which the EC50 in experiment [1] amounted to 93.8 nM. For the same compound, the Ki is 0.42 nM in experiment [2] and 2 nM in experiment [3].
`O=C(CCCN1CCC(n2cc(NC(=O)c3cnn4cccnc34)c(-c3cc(Cl)ccc3OC(F)F)n2)CC1)NC1CCOCC1` [Example 152, N-[3-[5-chloro-2-(difluoromethoxy)phenyl]-1-[1-[4-oxo-4-(tetrahydropyran-4-ylamino)butyl]-4-piperidyl]pyrazol-4-yl]pyrazolo[1,5-a]pyrimidine-3-carboxamide]: the EC50 in experiment [1] amounted to 11.9 nM. The Ki in experiment [2] stood at 0.19 nM; in experiment [3] it was 1.08 nM.
Consider `O=C(CCCN1CCC(n2cc(NC(=O)c3cnn4cccnc34)c(-c3cc(Cl)ccc3OC(F)F)n2)CC1)NC1COC1` [Example 153, N-[3-[5-chloro-2-(difluoromethoxy)phenyl]-1-[1-[4-(oxetan-3-ylamino)-4-oxo-butyl]-4-piperidyl]pyrazol-4-yl]pyrazolo[1,5-a]pyrimidine-3-carboxamide], for which the EC50 in experiment [1] was 36.5 nM. Besides, the Ki was found to be 0.27 nM in experiment [2] and 1.55 nM in experiment [3].
For the compound `CN1CCN(CCCN2CCC(n3cc(NC(=O)c4cnn5cccnc45)c(-c4cc(Cl)ccc4OC(F)F)n3)CC2)C1=O` [Example 154, N-[3-[5-chloro-2-(difluoromethoxy)phenyl]-1-[1-[3-(3-methyl-2-oxo-imidazolidin-1-yl)propyl]-4-piperidyl]pyrazol-4-yl]pyrazolo[1,5-a]pyrimidine-3-carboxamide], in experiment [1], the EC50 was found to be 2.7 nM. In addition, the Ki in experiment [2] stood at 0.23 nM; in experiment [3] it was 1.42 nM.
In the same order, the values of `O=C(Nc1cn(C2CCN(CCCN3CCCC3=O)CC2)nc1-c1cc(Cl)ccc1OC(F)F)c1cnn2cccnc12` [Example 155, N-[3-[5-chloro-2-(difluoromethoxy)phenyl]-1-[1-[3-(2-oxopyrrolidin-1-yl)propyl]-4-piperidyl]pyrazol-4-yl]pyrazolo[1,5-a]pyrimidine-3-carboxamide] are 5.1 nM, 0.24 nM and 1.56 nM.
In the same order, the values of `CCNC(=O)CCCN1CCC(n2cc(NC(=O)c3cnn4cccnc34)c(-c3cc(Cl)ccc3OC(F)F)n2)CC1` [Example 156, N-[3-[5-chloro-2-(difluoromethoxy)phenyl]-1-[1-[4-(ethylamino)-4-oxo-butyl]-4-piperidyl]pyrazol-4-yl]pyrazolo[1,5-a]pyrimidine-3-carboxamide] are 31.8 nM, 0.19 nM and 1.53 nM.
As for `CNC(=O)CN1CCC(n2cc(NC(=O)c3cnn4cccnc34)c(-c3cc(Cl)ccc3OC(F)F)n2)CC1` [Example 157, N-[3-[5-chloro-2-(difluoromethoxy)phenyl]-1-[1-[2-(methylamino)-2-oxo-ethyl]-4-piperidyl]pyrazol-4-yl]pyrazolo[1,5-a]pyrimidine-3-carboxamide], the EC50 in experiment [1] was determined as 9.2 nM. Besides, the Ki in experiment [2] was found to be 0.75 nM; in experiment [3], 1.32 nM.
For `O=C(Nc1cn(C2CCN(CCCN3CCOCC3)CC2)nc1-c1cc(Cl)ccc1OC(F)F)c1cnn2cccnc12` [Example 158, N-[3-[5-chloro-2-(difluoromethoxy)phenyl]-1-[1-(3-morpholinopropyl)-4-piperidyl]pyrazol-4-yl]pyrazolo[1,5-a]pyrimidine-3-carboxamide], in experiment [1], the EC50 was found to be 38.8 nM. The Ki in experiment [2] was 0.26 nM; in experiment [3], 2.12 nM.
Regarding `O=C(Nc1cn(C2CCN(CCCN3CCSCC3)CC2)nc1-c1cc(Cl)ccc1OC(F)F)c1cnn2cccnc12` [Example 159, N-[3-[5-chloro-2-(difluoromethoxy)phenyl]-1-[1-(3-thiomorpholinopropyl)-4-piperidyl]pyrazol-4-yl]pyrazolo[1,5-a]pyrimidine-3-carboxamide], in experiment [1], the EC50 was 57.8 nM. Besides, the Ki in experiment [2] came to 0.24 nM; in experiment [3] it was 2.32 nM.
On to `CNC(=O)CCN1CCC(n2cc(NC(=O)c3cnn4cccnc34)c(-c3cc(Cl)ccc3OC(F)F)n2)CC1` [Example 160, N-[3-[5-chloro-2-(difluoromethoxy)phenyl]-1-[1-[3-(methylamino)-3-oxo-propyl]-4-piperidyl]pyrazol-4-yl]pyrazolo[1,5-a]pyrimidine-3-carboxamide], for which, in experiment [1], the EC50 was 19.3 nM. In addition, the inhibition constant Ki in experiment [2] is 0.39 nM; in experiment [3] it was 3.02 nM.
In the same order, the values of `O=C(Nc1cn(C2CCN(CCCN3CCS(=O)(=O)CC3)CC2)nc1-c1cc(Cl)ccc1OC(F)F)c1cnn2cccnc12` [Example 161, N-[3-[5-chloro-2-(difluoromethoxy)phenyl]-1-[1-[3-(1,1-dioxo-1,4-thiazinan-4-yl)propyl]-4-piperidyl]pyrazol-4-yl]pyrazolo[1,5-a]pyrimidine-3-carboxamide] are 22.3 nM, 0.13 nM and 1.23 nM.
Consider `NC(=O)CCCN1CCC(n2cc(NC(=O)c3c(N)nn4cccnc34)c(-c3cc(Cl)ccc3OC(F)F)n2)CC1` [Example 162, 2-amino-N-[1-[1-(4-amino-4-oxo-butyl)-4-piperidyl]-3-[5-chloro-2-(difluoromethoxy)phenyl]pyrazol-4-yl]pyrazolo[1,5-a]pyrimidine-3-carboxamide], for which the EC50 in experiment [1] came to 15.4 nM. Also, the Ki in experiment [2] stood at 0.18 nM; in experiment [3] it was 0.59 nM.
Take `Nc1nn2cccnc2c1C(=O)Nc1cn(C2CCN(CCCN3CCNC3=O)CC2)nc1-c1cc(Cl)ccc1OC(F)F` [Example 163, 2-amino-N-[3-[5-chloro-2-(difluoromethoxy)phenyl]-1-[1-[3-(2-oxoimidazolidin-1-yl)propyl]-4-piperidyl]pyrazol-4-yl]pyrazolo[1,5-a]pyrimidine-3-carboxamide]: the EC50 in experiment [1] stood at 7.3 nM. Further, the inhibition constant (Ki) in experiment [2] stood at 0.19 nM; in experiment [3], 0.69 nM.
Turning to `CN1CCN(CCCN2CCC(n3cc(NC(=O)c4c(N)nn5cccnc45)c(-c4cc(Cl)ccc4OC(F)F)n3)CC2)C1=O` [Example 164, 2-amino-N-[3-[5-chloro-2-(difluoromethoxy)phenyl]-1-[1-[3-(3-methyl-2-oxo-imidazolidin-1-yl)propyl]-4-piperidyl]pyrazol-4-yl]pyrazolo[1,5-a]pyrimidine-3-carboxamide], the EC50 in experiment [1] is 5.6 nM. The inhibitory constant (Ki) in experiment [2] was determined as 0.06 nM; in experiment [3], 0.44 nM.
In the same order, the values of `NC(=O)CCN1CCC(n2cc(NC(=O)c3c(N)nn4cccnc34)c(-c3cc(Cl)ccc3OC(F)F)n2)CC1` [Example 165, 2-amino-N-[1-[1-(3-amino-3-oxo-propyl)-4-piperidyl]-3-[5-chloro-2-(difluoromethoxy)phenyl]pyrazol-4-yl]pyrazolo[1,5-a]pyrimidine-3-carboxamide] are 6.9 nM, 0.15 nM and 0.38 nM.
